This test addresses human MRGPRD (Homo sapiens, UniProt Q8TDS7). The experiment in a line: MRGPRD antagonist activity, IP-One HTRF assay in CHO cells stably expressing human MRGPRD (versus 100 μM β-Alanine agonist). The format is cell-based. The protocol:
Chinese Hamster Ovary (CHO) cells stably expressing human MRGPRD (Eurofins, San Diego CA) were plated in a 384-well plate at 20,000 cells per well in 12 μL of Optimem (Fisher Scientific 11-058-021). Plates were kept in the incubator at 37° C. overnight. Antagonists were solubilized at a concentration of 10 mM in DMSO, and the agonists were solubilized to stock concentrations of either 50 mM in H2O (β-Alanine) or 10 mM in DMSO (all others) and then diluted in assay buffer (final concentrations of 5.7 mM Tris-HCl, 43 mM NaCl, 50 mM LiCl, pH=8). The concentration of DMSO was normalized across the plate. Antagonists were added to the plate using a Tecan D300 Digital Dispenser at nanoliter/picoliter volumes and 2 μL of agonists in assay buffer were added to each well for a final assay volume of 14 μL. Plates were covered and incubated for 1 h at 37° C. and then for 1 h at room temperature. IP-1 standards and HTRF detection reagents were added according to an IP-One-Gq Kit purchased from Cisbio (part number 62IPAPEJ) and incubated in the dark for 1 h at room temperature. Assay plates were read on either a Molecular Devices SpectraMax iD5 plate reader or a BMG ClarioStar plate reader. The HTRF ratio was calculated form the raw data and graphed using GraphPad Prism to calculate IC50 values. Data are expressed as average IC50 values and average percent antagonism calculated as a percent of the maximum efficacy response. For these studies, the variability of the data was assessed by determining the standard error of mean (SEM).
The activity ranges are denoted as follows: “+++++” denotes antagonist activity <100 nM; “++++” denotes antagonist activity between 100 and 500 nM; “+++” denotes activity between 500 and 1000 nM; “++” denotes activity between 1000 and 3000 nM; and “+” denotes activity >3000 nM.

Sequence of human MRGPRD (Q8TDS7 whole entry): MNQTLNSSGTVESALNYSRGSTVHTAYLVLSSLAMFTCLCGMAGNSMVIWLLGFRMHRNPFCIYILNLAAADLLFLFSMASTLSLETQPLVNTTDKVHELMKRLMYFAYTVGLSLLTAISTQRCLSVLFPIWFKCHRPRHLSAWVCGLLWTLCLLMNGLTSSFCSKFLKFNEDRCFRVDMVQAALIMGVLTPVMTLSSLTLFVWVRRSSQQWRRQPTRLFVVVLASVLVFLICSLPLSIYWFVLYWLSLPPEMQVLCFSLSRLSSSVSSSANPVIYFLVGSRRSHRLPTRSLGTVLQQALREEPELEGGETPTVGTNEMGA

On to `O=C(Nc1ccccc1F)N1CCCC(c2nc(-c3ccc(F)cc3)c3ccccn23)C1` (stereo not shown) [Compound 11-8], for which the half-maximal inhibitory concentration (IC50) was 1000 to 3000 nM.
In turn, `COc1cccc(-c2nc([C@@H]3CCCN(C(=O)Nc4ccc(CC#N)cc4)C3)n3ccccc23)c1` [Compound 5-63] yielded an IC50 of less than 100 nM.
Next, `COc1cccc(-c2nc([C@@H]3CCCN(C(=O)Nc4cccc5ccccc45)C3)n3ccccc23)c1` [Compound 5-39]: 100 to 500 nM; `COc1cc(OC)cc(-c2nc([C@@H]3CCCN(C(=O)Nc4ccc(N(C)C)cc4)C3)n3ccccc23)c1` [Compound 10-17]: less than 100 nM; `COc1cccc(-c2nc([C@@H]3CCCN(C(=O)Nc4ccccc4OC)C3)n3ccccc23)c1` [Compound 5-11]: 100 to 500 nM.
Next, `COc1cccc(-c2nc([C@@H]3CCCN(C(=O)Nc4cccc5c4CCC5)C3)n3ccccc23)c1` [Compound 5-26]: 100 to 500 nM; `COc1cccc(-c2nc([C@@H]3CCCN(C(=O)c4cccc(F)c4)C3)n3ccccc23)c1` [Compound 12-14]: 500 to 1000 nM; `COc1cccc(-c2nc(C3CN(C(=O)Nc4ccc(N(C)C)cc4)C3)n3ccccc23)c1` [Compound 23-2]: more than 3000 nM.
Next, `COc1cccc(-c2nc([C@@H]3CCCN(C(=O)Nc4ccc(C)c(C)c4)C3)n3ccccc23)c1` [Compound 1-10]: 100 to 500 nM.
In turn, `COc1cccc(-c2nc([C@@H]3CCCN(C(=O)Nc4ccc5c(c4)COCO5)C3)n3ccccc23)c1` [Compound 5-57] displayed a concentration for half-maximal inhibition (IC50) of less than 100 nM.
With `CN(C)C(=O)c1cccc(-c2nc([C@@H]3CCCN(C(=O)Nc4ccc(N(C)C)cc4)C3)n3ccccc23)c1` [Compound 10-71], the IC50 is less than 100 nM.
To `COc1ccc(C(=O)N2CCCC(c3nc(-c4cccc(OC)c4)c4cccc(OC)n34)C2)cc1` (stereo not shown) [Compound 14-4] belongs 100 to 500 nM; to `CC(=O)c1ccc(-c2nc([C@@H]3CCCN(C(=O)Nc4ccc(N(C)C)cc4)C3)n3ccccc23)s1` [Compound 10-57], 500 to 1000 nM; to `O=C(Nc1ccccc1F)N1CCCC(c2nc(-c3cccc(F)c3)c3ccccn23)C1` (stereo not shown) [Compound 11-5], 1000 to 3000 nM.
As to `COc1cccc(-c2nc([C@@H]3CCCN(C(=O)Nc4ccc(C)cc4C)C3)n3ccccc23)c1` [Compound 5-25], the IC50 was less than 100 nM.
To `COc1cccc(-c2nc(C3CCCN(C(=O)Nc4ccccc4F)C3)n3cccc(C)c23)c1` (stereo not shown) [Compound 17-1, N-(2-fluorophenyl)-3-(1-(3-methoxyphenyl)-8-methylimidazo[1,5-a]pyridin-3-yl)piperidine-1-carboxamide] belongs 100 to 500 nM; to `CCc1ccc(NC(=O)N2CCCC(c3nc(-c4cccc(OC)c4)c4ccccn34)C2)cc1` (stereo not shown) [Compound 3-22], 100 to 500 nM; to `CN(C)c1ccc(NC(=O)N2CCC[C@@H](c3nc(-c4ccc(C(F)F)cc4)c4ccccn34)C2)cc1` [Compound 10-49], 100 to 500 nM.
To `COc1cccc(-c2nc([C@@H]3CCCN(C(=O)Nc4cccc(N(C)C)c4)C3)n3ccccc23)c1` [Compound 5-36] belongs 100 to 500 nM; to `O=C(Nc1ccccc1F)N1CCCC(c2nc(-c3cccnc3)c3ccccn23)C1` (stereo not shown) [Compound 11-6], more than 3000 nM.
For `COc1cccc(-c2nn(C3CCCN(C(=O)Nc4ccc(N(C)C)cc4)C3)c3ccccc23)c1` (stereo not shown) [Compound 5-6], the IC50 was less than 100 nM.
To `COc1cccc(-c2nc([C@@H]3CCCN(C(=O)NCCN4CCOCC4)C3)n3ccccc23)c1` [Compound 10-38] belongs 500 to 1000 nM; to `COc1cccc(NC(=O)N2CCC[C@@H](c3nc(-c4cccc(OC)c4)c4ccccn34)C2)c1` [Compound 1-9], less than 100 nM.
Next, `COc1cccc(-c2nc(C3CCCN(C(=O)Nc4ccc(C)cc4C)C3)n3ccccc23)c1` (stereo not shown) [Compound 5-5, N-(2,4-dimethylphenyl)-3-(1-(3-methoxyphenyl)imidazo[1,5-a]pyridin-3-yl)piperidine-1-carboxamide]: 100 to 500 nM; `COc1cccc(-c2nc(C3CCCN(C(=O)Nc4ccccc4Cl)C3)n3ccccc23)c1` (stereo not shown) [Compound 3-7]: 500 to 1000 nM.

These data come from patent US20240246980A1, “MODULATORS OF MAS-RELATED G-PROTEIN RECEPTOR D AND RELATED PRODUCTS AND METHODS” (Escient Pharmaceuticals, Inc., priority 2022, published 2024).
